In patent US8030071B2, “Restoration of cholesterol independence and its use as a selectable marker in NS0 cell culture” (priority 2005, dated 2011):

Key:
Hsd17b7 = Hsd17b7 transcription after 5-azacytidine treatment (real-time PCR); format: cell-based, mouse; settings: NS0 cells treated with 5-azacytidine
Description: Reverse Transcription and Real-time comparative quantitative PCR. Total RNA was extracted from cells in exponential growth phase using the RNeasy Mini Kit (Qiagen, Valencia, Calif., USA), followed by reverse transcription with Superscript™ II RNase H^− Reverse Transcriptase (Invitrogen). For real-time comparative PCR analysis, samples were prepared using QuantiTect SYBR Green PCR kit (Qiagen) and reactions run on ABI 7700 (Applied Biosystems, Foster City, Calif., USA). Samples were analyzed in duplicates and β-actin was used as the normalization message. The fold change was calculated using the comparative CT method.

NS0 cells [1] = experiment: 5-azacytidine treatment and limiting dilution plating for cholesterol independent clones; format: cell-based, mouse
Description: Treatment with 5-azacytidine (5azaC) and isolation of cholesterol independent clones. NS0 cells at 200,000 cells/ml were treated with 5azaC (1 μM and 5 μM) in tissue culture flasks. After 48 hrs, the cells were washed and limiting dilution plating was carried out in 10 96-well plates at a dilution of 2,000 cells/well using CD Hybridoma medium without cholesterol supplement. Untreated NS0 cells were also plated in cholesterol-free medium as a control for background cholesterol independent variants in the cell population. The plates were incubated at 5% CO2, 37° C. and saturated humidity for 1-2 weeks.
5azaC treated cells were aliquoted into 96-well cell culture plates containing cholesterol-free medium. […] Single cell colonies were isolated from the 96-well culture plates and expanded to tissue culture flasks for further characterization.

other systems = settings: baseline spontaneous reactivation frequency of 10^−5 or less (Holliday et al.); cited from earlier work
NS0 cells [2] = experiment: Growth kinetics of NS0 cells in tissue culture flasks with sterol supplement; format: cell-based, mouse; settings: 5.0 μg/ml sterol, 4 mg/ml fatty acid-free BSA; for maximum cell density: after 70 hrs in culture; for growth of NS0 cells supported: tissue culture flasks
Description: The medium in all four flasks was supplemented with 4 mg/ml fatty acid-free BSA.
Cells and cell culture. NS0 and NS0_r, the cholesterol independent revertant, were obtained from Pfizer, Inc. (St. Louis, Mo.) and have been described previously (Seth et al., Biotechnol Bioeng, 90:552-67, 2005). Growth response of NS0 cells to various cholesterol biosynthesis pathway precursors and intermediates was studied in CD Hybridoma medium (Invitrogen, Carlsbad, Calif., USA) without cholesterol-lipid concentrate. […] Each well containing 1.5 ml precursor-supplemented medium was seeded with 2×10^5 cells/ml. NS0 cells cultured in the presence of cholesterol served as the positive control. Different intermediates were dissolved in 100% ethanol and added to the culture medium along with 4 mg/ml fatty acid-free BSA (Sigma, St. Louis, Mo., USA). […] Citric acid anhydrous, mevalonolactone, squalene, lanosterol, lathosterol, 7-dehydrocholesterol and cholesterol powder were purchased from Sigma (St. Louis, Mo., USA). All test conditions were performed in duplicate. The medium was supplemented with 4 mg/ml fatty acid-free BSA. Presence of BSA facilitates uptake of the sterol precursors (Sato et al., Mol Biol Med, 2, 121-34:1984).
In order to verify the block between lanosterol and lathosterol in the cholesterol biosynthetic pathway, growth kinetics of NS0 cells in the presence of lanosterol (5.0 μg/ml), lathosterol (5.0 μg/ml) and cholesterol (5.0 μg/ml) were determined. Cells were also grown in basal medium supplemented with fatty acid-free BSA only (FIG. 2b). […] Cells attained a maximum cell density of 4×10^6 cells/ml after 70 hrs in culture with lathosterol, compared to 3×10^6 cells/ml in medium supplemented with cholesterol. These observations were consistent over repeated cultures. The results support the notion that the block between lanosterol and lathosterol in the biosynthesis of cholesterol in NS0 is at least partly responsible for cholesterol auxotrophy in this cell line.

NS0 cells [3] = experiment: Growth response of NS0 cells in 24-well plates to cholesterol biosynthesis precursors/intermediates; format: cell-based, mouse; settings: cholesterol-free CD Hybridoma medium, 4 mg/ml fatty acid-free BSA, three concentrations per precursor
Description: Cells and cell culture. […] Growth response of NS0 cells to various cholesterol biosynthesis pathway precursors and intermediates was studied in CD Hybridoma medium (Invitrogen, Carlsbad, Calif., USA) without cholesterol-lipid concentrate. […] Each well containing 1.5 ml precursor-supplemented medium was seeded with 2×10^5 cells/ml. NS0 cells cultured in the presence of cholesterol served as the positive control. Different intermediates were dissolved in 100% ethanol and added to the culture medium along with 4 mg/ml fatty acid-free BSA (Sigma, St. Louis, Mo., USA). […] All test conditions were performed in duplicate. The medium was supplemented with 4 mg/ml fatty acid-free BSA.

Compound | maximum cell density (NS0 cells [2]) | growth of NS0 cells supported (NS0 cells [2]) | growth of NS0 cells supported by precursor/intermediate (NS0 cells [3]) | also measured
Nc1ncn([C@@H]2O[C@H](CO)[C@@H](O)[C@H]2O)c(=O)n1 [5azaC, 5-azacytidine] |  |  |  | transcriptional repression of Hsd17b7 (Hsd17b7): relieved; reversion rate to cholesterol independence (NS0 cells [1]; 1 μM 5azaC): less than 1×10^−6; Survival frequency of wells in a 96-well plate culture (NS0 cells [1]; 5 μM 5azaC, 2,000 cells/well, cholesterol-free medium): ~80 % of wells; cholesterol revertants after exposure (NS0 cells [1]; 5 μM 5azaC, 48 hrs, then cholesterol-free medium): many cholesterol revertants; reactivated cells (other systems): 10-30%
CC(C)CCC[C@@H](C)[C@H]1CC[C@H]2[C@@H]3CC=C4C[C@@H](O)CC[C@]4(C)[C@H]3CC[C@]12C [cholesterol] | 3×10^6 cells/ml |  |  | 
CC(C)=CCC[C@@H](C)[C@H]1CC[C@@]2(C)C3=C(CC[C@]12C)[C@@]1(C)CC[C@H](O)C(C)(C)[C@@H]1CC3 [lanosterol] |  | unable to support the growth of NS0 cells | Growth was not supported | 
CC(C)CCC[C@@H](C)[C@H]1CC[C@H]2C3=CC[C@H]4C[C@@H](O)CC[C@]4(C)[C@H]3CC[C@]12C [lathosterol] | 4×10^6 cells/ml | effective in promoting the growth of NS0 cells | able to support the growth of cells | 
C[C@@]1(O)CCOC(=O)C1 [mevalonolactone] |  |  | Growth was not supported | 
CC(C)=CCC/C(C)=C/CC/C(C)=C/CC/C=C(\C)CC/C=C(\C)CCC=C(C)C [squalene] |  |  | Growth was not supported | 
